Measured values published in patent publication EP4595972A1, “PEPTIDE FOR TREATING OR PREVENTING 4R TAUOPATHY” (GemVax & KAEL Co., Ltd., priority 2022, dated 2024).

Key:
tau oligomer (Tau-BiFC) = biological target: T1, tau oligomer (Tau-BiFC) (Homo sapiens, UniProt P10636, P618L); test: Tau-BiFC fluorescent imaging of brain tissues (tau oligomer formation); assay type: in vivo, mouse
T1 construct: VN173 (BiFC fragment); VC155 (BiFC fragment); expressed in transfected cells; host or cells: brain of transgenic TauP301L-BiFC mice (transgene-expressed)
T1 sequence (P10636 1-441 isoform P10636-8 P301L): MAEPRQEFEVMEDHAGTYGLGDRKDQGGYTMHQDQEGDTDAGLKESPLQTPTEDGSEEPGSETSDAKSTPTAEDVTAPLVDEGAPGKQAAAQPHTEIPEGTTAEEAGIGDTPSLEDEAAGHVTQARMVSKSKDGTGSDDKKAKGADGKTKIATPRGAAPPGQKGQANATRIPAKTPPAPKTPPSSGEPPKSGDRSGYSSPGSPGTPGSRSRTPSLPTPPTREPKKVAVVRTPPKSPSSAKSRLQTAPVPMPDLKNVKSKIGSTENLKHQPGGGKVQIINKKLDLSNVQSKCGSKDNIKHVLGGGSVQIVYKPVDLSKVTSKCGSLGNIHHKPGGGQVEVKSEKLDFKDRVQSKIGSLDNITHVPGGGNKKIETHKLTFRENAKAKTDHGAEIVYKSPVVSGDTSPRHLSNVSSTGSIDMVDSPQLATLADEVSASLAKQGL
T1 sequence (P10636 1-441 isoform P10636-8 P301L): as above
Description: • 1) Experimental method for brain tissue sampling • (1) On day 1, after completing 63 times administration schedule, the mice of TauP301L-BiFC mouse model were anesthetized, followed by preparing heart laparotomy. • (2) Saline was introduced into the heart of each mouse in the TauP301L-BiFC mouse model, followed by removing vivo blood using a perfusion pump machine. • (3) The brain of the mouse was extracted and weighed. • (4) The brain to be used for tissue staining experiment was immersed in 4% FPA solution and fixed for 24 hours. • (5) On day 2, after completing fixation, the brain tissues were immersed in 20% sucrose solution to remove water for 24 hours. • (6) On day 3, the brain tissues were immersed in 30% sucrose solution to remove water for 48 hours. • (7) On day 5, the brain tissues free of water were taken and extra moisture was removed. Then, the brain tissues and a frozen tissue embedding agent (OCT compound) were placed in a prepared mold, followed by freezing the brain tissues as fast as possible while protecting the tissues. The frozen brain tissue-containing mold was stored in a defreezer at -80°C. Thereafter, using a cryostat for frozen fragment, the tissues were cut into a unit thickness of 30 µm and stored in 0.05% sodium azide solution.
• (1) On day 1, a brain tissue sample having a thickness of 30 µm under cryosection was selected for each brain region, immersed in PBS solution, and then washed three times. • (2) A solution of 0.05% Sudan Black B in 70% EtOH was stirred overnight (O/N), and then, particles were filtered through 0.22 µm filter. • (3) The selected brain tissue sample was immersed in distilled water (D.W.), and washed three times for 5 minutes. • (4) The brain tissues were immersed in a prepared 0.05% Sudan Black B solution, followed by staining for 10 minutes. • (5) The brain tissues stained in Sudan black B were immersed in 0.1% PBS-T solution, and washed at an interval of 30 seconds to control a degree of staining. • (6) The tissues were washed in D.W. three times for 5 minutes. • (7) In Hoechst solution at a concentration of 0.2 µg/mL in distilled water, the brain tissues were immersed to conduct nuclei staining for 20 minutes. • (8) The tissues were washed in D.W. three times for 5 minutes. • (9) Tau-BiFC imaging was performed using a slide scanner.
• (1) In order to obtain fluorescent images of the stained brain tissues, a brain tissue slide was scanned using Zeiss Axio Scan (Zeiss, Oberkochen, Germany). • BiFC fluorescence: λex=460-490 nm, λem=500-550 nm • AT8 fluorescence: λex=620-640 nm, λem=650-700 nm • Hoechst fluorescence: λex=330-375 nm, λem=430-470 nm • (3) For brain tissues per site obtained through imaging, fluorescent value was calculated through Image J software (NIH).

tau aggregation = tau aggregation (Homo sapiens, UniProt P10636); conditions: reported in Kim et al., Exp. Mol. Med. 55, 612-627 (2023); read-out: EC50 (tau aggregation inhibitory section); cited from earlier work
Chain of tau aggregation (P10636 whole entry): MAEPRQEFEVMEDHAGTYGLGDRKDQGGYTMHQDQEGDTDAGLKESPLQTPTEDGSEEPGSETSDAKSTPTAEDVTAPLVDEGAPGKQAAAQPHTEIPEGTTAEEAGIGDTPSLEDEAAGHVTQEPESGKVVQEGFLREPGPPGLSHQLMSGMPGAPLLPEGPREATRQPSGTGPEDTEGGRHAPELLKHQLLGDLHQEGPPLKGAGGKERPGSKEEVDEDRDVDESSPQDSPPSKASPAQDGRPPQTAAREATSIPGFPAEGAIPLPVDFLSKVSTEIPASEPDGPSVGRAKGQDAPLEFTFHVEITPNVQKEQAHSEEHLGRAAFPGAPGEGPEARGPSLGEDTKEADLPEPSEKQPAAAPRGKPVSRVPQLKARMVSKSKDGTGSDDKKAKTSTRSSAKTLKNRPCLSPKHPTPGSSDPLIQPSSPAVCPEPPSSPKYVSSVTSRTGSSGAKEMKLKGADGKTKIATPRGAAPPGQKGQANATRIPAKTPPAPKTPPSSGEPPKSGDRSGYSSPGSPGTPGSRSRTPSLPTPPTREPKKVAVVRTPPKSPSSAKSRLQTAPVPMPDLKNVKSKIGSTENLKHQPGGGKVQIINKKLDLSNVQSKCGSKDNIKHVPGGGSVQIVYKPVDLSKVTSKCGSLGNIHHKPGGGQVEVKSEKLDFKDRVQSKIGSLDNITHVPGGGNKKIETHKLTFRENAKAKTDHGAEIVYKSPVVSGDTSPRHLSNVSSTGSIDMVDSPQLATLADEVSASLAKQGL

[1] = patients with mild or moderate Alzheimer's disease; most general cause for stopping high-dose LMTM; cited from earlier work
[2] = LMTM 15 mg/kg oral vs. vehicle, decrease (in parentheses)
[3] = LMTM 15 mg/kg oral vs. vehicle, decrease (in parentheses), *p<0.05

## CN(C)c1ccc2c(c1)Sc1cc(N(C)C)ccc1N2.CS(=O)(=O)O.CS(=O)(=O)O [LMTM]
Tau oligomer (Tau-BiFC); [2]
  TauBiFC fluorescent level, Somatosensory cortex: (15 %)
  TauBiFC fluorescent level, Substantia nigra: (26 %)
Tau oligomer (Tau-BiFC); [3]
  TauBiFC fluorescent level, Hippocampus: (21 %)*
  TauBiFC fluorescent level, Motor cortex: (27 %)*
Tau oligomer (Tau-BiFC); LMTM 15 mpk
  Tau-BiFC fluorescent level as compared to the vehicle group, in words: significantly reduced in the motor cortex, hippocampus and substantia nigra regions
Tau aggregation
  EC50: 2200 ± 200 nM
[1]
  most common side effects: most common side effects related to gastrointestinal and urinary system
